The numbers were not newly measured in patent US9011962B2, “Bovine meat compositions having enhanced quality, nutritive and health values obtained from enrichment diets” (priority 2007, dated 2015), which cites them from elsewhere.

The conditions of data set [1]: in vivo.

On to `C[Se]CC[C@H](N)C(=O)O` [Selenomethionine, selenomethionine], for which, in data set [1], the “Bioavailability (relative)” value was 245.
As to `[Se]` [selenium], the “upper limit from food and supplements likely to pose no risk of adverse health effects” value (FDA) is on record as 400 micrograms per day. Besides, for the setting “Rayman review”, the “safe daily intake for human use” value is “approximately 15 micrograms per kilogram body weight per day”. Under “recognized by FDA”, the “lowest-observed adverse effect level of selenium intake” value is recorded as 900 micrograms per day and the “no-observed adverse effect level” value is 800 micrograms per day.
